Series [1] is described as follows: Blood–brain barrier permeability of fluorescently labelled compounds, fluorescence microscopy of brain sections. The format is in vivo, rat. The settings on record: pepstatin conjugated with carboxyfluorescein and LVV-H7 tagged with Dansyl, given i.p. to rats; brain tissue sections, fluorescence microscopy 10×. Here is the method:
(§1) LVV‐H7 was dissolved in 0.9% NaCl and administered intraperitoneally (i.p.) 15 min before experiments at doses of 0.5 and 1 mg/kg. Control groups received 0.9% NaCl injections in an equivalent volume and by the same route. Pepstatin (Sigma‐Aldrich) was dissolved in 0.9% NaCl and administered i.p. at 10 mg/kg. Ethanol (95% w/v, Polmos; Poznan, Poland) was diluted with 0.9% NaCl to a 15% w/v concentration. In the CPP procedure, ethanol at doses of 1 or 1.5 g/kg (15% w/v) was administered i.p. before each conditioning phase.
The fluorescent analogue of pepstatin was synthesized on the Tentagel S RAM resin. At first, the Fmoc‐Lys (Mtt)‐OH was introduced using COMU/DIPEA, according to the procedure described above. To remove the Mtt group, the dried resin was treated with the TFE/HFIP/TIS/DCM mixture: 1:2:0.5:6.5 (v/v). Labelling with 5(6)‐carboxyfluorescein was performed with 5(6)‐carboxyfluorescein/HOBt/DIC in a molar ratio of 1:1:1. […] The high‐resolution MS characterized the probe, and preparative HPLC assessed its purity.
We investigated the ability of synthesized LVV‐H7 and pepstatin to cross the blood–brain barrier (BBB). […] Brain tissue samples from treated rats were then analysed using fluorescence microscopy.
FIGURE 3 Rat brain sections under visible light and fluorescence microscopy 10×: (a) pepstatin labelled with carboxyfluorescein, (b) LVV‐H7 labelled with Dansyl.

In another series the test system is male Wistar rats. Kind of series: Ethanol conditioned place preference (CPP) test. It counts as in vivo, rat. Here is the method: All conducted experiments used male Wistar rats (Experimental Medicine Center, Lublin, Poland) weighing 220 ± 20 g. The animals were housed under standard laboratory conditions (22°C, 12:12‐h light–dark cycle; light on at 8:00 AM) in groups of four rats per cage. The animals were allowed 7 days for acclimation before experiments with access to standard food (Bacutil; Motycz, Poland) and water ad libitum. After 7 days of adaptation and handling, the animals were divided into groups of 7–8 and prepared for the tests. Behavioural experiments were carried out according to the National Institute of Health Guidelines for the Care and Use of Laboratory Animals and the European Community Council Directive for Care and Use of Laboratory Animals (86/609/EEC). The Local Ethics Committee approved them. Additionally, we confirm that ARRIVE guidelines report the study.
as §1
In our experiments, eight identical rectangular CPP boxes (60 cm × 35 cm × 30 cm), each one composed of three compartments: two large compartments (25 cm × 35 cm) and a smaller central grey compartment (10 cm × 10 cm), were used. In one of the compartments, the inside walls were white, and the floor held a large grid, whereas the walls of the other compartment were painted black, and the floor held a narrow grid. Illumination in the testing room was adjusted so that the environmental (visual and tactile) cues would not produce a significant baseline preference for a specific compartment. Both large compartments were separated from a central grey area by the removable guillotine doors, the opening of which provided access to the larger compartments. The apparatus was thoroughly cleaned between each test procedure and then wiped with dry paper towels to neutralize odour traces. […] The CPP performance was measured by computerized video tracking.
The CPP paradigm was carried out according to an unbiased procedure with minor modifications. […] The time spent in each compartment was measured during the pre‐test phase. […]
During the second phase (pre‐conditioning test), 24 h after the habituation session, rats were placed in the central grey square compartment of the CPP apparatus with free access to all compartments for 15 min. The time spent in each compartment was recorded with a computer programme. […]

Series [2] has as its system μ‐opioid receptor (OPRM1). The series can be described thus: Western blot densitometry of OPRM1 expression in CNS structures after the CPP test. The format is in vivo, rat. Conditions: ethanol alone versus control. Here is the method:
(§2) Brain structures and spinal cords isolated from the animals were homogenized in 50 μL of the buffer consisting of 50 mM Tris/HCl, pH 7.6 and 150 mM NaCl in the presence of a proteinase inhibitor cocktail (Roche). Cells were homogenized thrice on ice by sonication (5 s each). The homogenate was centrifuged at 25 000g for 30 min at 4°C. The final protein concentration in the supernatant was determined using a Bradford assay kit (Sigma‐Aldrich).
(§3) One‐dimensional polyacrylamide gel electrophoresis was performed after standardizing the samples according to their total protein concentration. Thirty microlitres of the Laemmli sample buffer (Bio‐Rad, USA) were added to the subsequent volume of each sample, followed by incubation for 5 min at 90°C in a Thermomixer (Eppendorf). According to the Bio‐Rad protocol, proteins were separated on the 10% SDS‐PAGE.
(§4) Mini Protean system and electrotransferred onto the PVDF membrane (Bio‐Rad, USA). The adequate antibodies confirmed the presence of proteins (Biorbyt, UK). […]
(§5) Protein expression levels were measured using standard Western blotting. SDS‐PAGE was performed after standardizing protein extracts based on total protein concentration (determined via the Bradford method), immunotransfer, and immunodetection. Densitometric analysis was conducted to quantify protein levels in all structures from five animals. […]
A general note: In western blotting, separated proteins are transferred to a membrane and probed.

In a further series the test system is NMDA receptor (NMDAR1). Kind of series: Western blot densitometry of NMDA receptor expression in CNS structures after the CPP test. The format is in vivo, rat. The settings on record: ethanol alone versus control. The protocol: as §2, §3, §4, §5
The subject of the next series is DARPP‐32. The series can be described thus: Western blot densitometry of DARPP‐32 expression in CNS structures after the CPP test. It counts as in vivo, rat. The settings on record: alcohol alone. Here is the method: as §2, §3, §4, §5

Results on three compounds are retold here after paper PMC12412044, “The Role of LVV‐H7 in Alcohol‐Induced Reward Mechanisms” (Addiction Biology, 2025).

Entries after “also recorded” stand apart in the source; their conditions may differ.

For the compound `CC(C)C[C@H](N)C(=O)N[C@H](C(=O)N[C@H](C(=O)N[C@@H](Cc1ccc(O)cc1)C(=O)N1CCC[C@H]1C(=O)N[C@@H](Cc1c[nH]c2ccccc12)C(=O)N[C@H](C(=O)N[C@@H](CCC(N)=O)C(=O)N[C@@H](CCCNC(=N)N)C(=O)N[C@@H](Cc1ccccc1)C(=O)O)[C@@H](C)O)C(C)C)C(C)C` [LVV‐H7, LVV‐hemorphin‐7], the “ability to cross the blood–brain barrier (BBB)” value in series [1] is “successfully cross the BBB”. Moreover, the “enzyme involved in the production of fragment VV-H7” value (proteins identified in active Fraction 29 of spinal cord homogenate, nanoLC-MALDI-MS/MS) is “puromycin‐sensitive aminopeptidase (PSA)”. For the same compound, the “degradation products of LVV-H7 after incubation with homogenates” value (rat spinal cord homogenate, DEAE fractions, LVV-hemorphin 60 μg/mL, 10 μL in 40 μL, Tris–HCl pH 7.4, 37°C, 1 h, read-out mass spectrometry) is “VVYPWTQRF, YPWTQRF, PWTQRF and LVVYPWTQR fragments were mainly revealed”.
On to `CCO` [ethanol], for which the “time spent in the drug-associated compartment on the CPP test day” value in the series on male Wistar rats (ethanol 1.0 g/kg i.p., 10-day conditioning, versus 0.9% NaCl group) was “did not change the time spent; also recorded: did not evoke any rewarding effects”. Besides, the “time spent in the drug-paired compartment on the CPP test day (expression of ethanol-induced CPP)” value in the series with male Wistar rats (ethanol 1.5 g/kg (15% w/v) i.p., 10-day conditioning, versus 0.9% NaCl group) is “spent significantly more time”. Moreover, the “OPRM1 expression following EtOH administration” value in series [2] is “statistically significant upregulation”. Further, in the series on NMDA receptor (NMDAR1), the “NMDA receptor expression following EtOH administration” value is given as “statistically significant upregulation”. For the same compound, in the series with DARPP‐32, the “DARPP-32 expression after alcohol administration” value is given as “upregulation”.
Consider pepstatin, for which, in series [1], the “ability to cross the blood–brain barrier (BBB)” value was “successfully cross the BBB”. Moreover, in the series on male Wistar rats (pepstatin 10 mg/kg i.p. 5 min before each ethanol injection (1.5 g/kg, 15% w/v, i.p.) during 10-day conditioning, p < 0.001), the “expression of ethanol-CPP after pepstatin pretreatment” value was “significantly blocked the expression of ethanol‐CPP”. For the same compound, in the series with male Wistar rats (pepstatin 10 mg/kg i.p. before each conditioning session, no ethanol, versus 0.9% NaCl), the “time spent in the drug-associated compartment, pepstatin given alone” value is given as “did not change the time spent”.
